In the assay the target is T1, Human HDAC8 (Homo sapiens, UniProt Q9BY41).
T1 construct: full-length with a C-terminal His tag, MW=46.4 kDa; His tag (C); made in house; host or cells: baculovirus expression system
T1 sequence (Q9BY41 1-377): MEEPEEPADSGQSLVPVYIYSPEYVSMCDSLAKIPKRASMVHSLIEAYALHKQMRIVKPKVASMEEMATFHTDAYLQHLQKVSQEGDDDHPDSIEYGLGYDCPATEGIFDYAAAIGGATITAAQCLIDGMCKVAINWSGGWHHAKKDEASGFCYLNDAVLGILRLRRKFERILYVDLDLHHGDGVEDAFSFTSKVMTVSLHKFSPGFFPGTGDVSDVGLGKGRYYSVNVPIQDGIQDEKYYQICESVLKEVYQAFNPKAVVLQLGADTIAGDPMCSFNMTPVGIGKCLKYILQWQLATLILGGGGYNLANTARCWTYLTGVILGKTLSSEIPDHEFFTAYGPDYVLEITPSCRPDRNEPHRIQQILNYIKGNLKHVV
Put plainly: Biochemical HDAC enzymatic assay, HDAC8. Conditions: incubation time 10 min. As to the method: Incubation time for HDAC1/2 is 120 min, and 10 min for other HDACs.
Human HDAC8 (GenBank Accession No. NM_018486), full-length with a C-terminal His tag, MW=46.4 kDa, was expressed in a baculovirus expression system.
(§1) • I. Compound handling: Testing compounds were dissolved in 100% DMSO to a specific concentration. The serial dilution was conducted by epMotion 5070 in DMSO. • II. HDAC reaction buffer: 50 mM Tris-HCl, pH8.0, 137 mM NaCl, 2.7 mM KCl, and 1 mM MgCl2, Added fresh: 1 mg/ml BSA, 1% DMSO. • III. Substrate: Fluorogenic HDAC General Substrate for HDAC1, 2, 3, 6, 10, 11 ans Sirt1, 2 and 3: Arg-His-Lys-Lys(Ac); HDAC8 only substrate: Arg-His-Lys(Ac)-Lys(Ac); Class2A Substrate (HDAC4, 5, 7 and 9): Acetyl-Lys(trifluoroacetyl)-AMC; Sirt5 substrate: Ac-Lys(succinyl)-AMC. • IV. General Reaction Procedure: (Standard IC50 determination) • a. Delivered 2× enzyme in wells of reaction plate except No Enzyme (No En) control wells. Add buffer in No En wells. • b. Delivered compounds in 100% DMSO into the enzyme mixture by Acoustic technology (Echo550; nanoliter range). Spin down and pre-incubation. • c. Delivered 2× Substrate Mixture (Fluorogenic HDAC Substrate and co-factor (500 μM of Nicotinamide adenine dinucleotide (NAD^+) in all Sirt assay) in all reaction wells to initiate the reaction. Spin and shake. • d. Incubated for 1-2 hr. at 30° C. with seal. • e. Added Developer with Trichostatin A (or TMP269 or NAD^+) to stop the reaction and to generate fluorescent color. • f. Fluorescence was read (excitatory, 360; emission, 460) using the EnVision Multilabel Plate Reader (Perkin Elmer) • g. Endpoint reading was taken for analysis after the development reaches plateau. • V. Data Analysis: The percentages of enzyme activity (relative to DMSO controls) and IC50 values were calculated using the GraphPad Prism 4 program based on a sigmoidal dose-response equation.
The inhibitory activities of HDAC of compounds of the invention were determined using biochemical HDAC assays. Compounds were tested at the indicated doses in the biochemical assays of HDAC1, HDAC2, HDAC3, HDAC4, HDAC5, HDAC6, HDAC7, HDAC8, HDAC9, HDAC10, or HDAC11 enzyme. The curve fit and IC50 values were calculated using the GraphPad Prism 4 program based on a sigmoidal dose-response equation.
as §1, with “[…]” for “μM”, “equation. […]” for “equation.”

Each structure is given as a SMILES string. Some results are limits rather than exact numbers.

One may read the IC50 as the concentration that inhibits the measured activity by half. On to `O=C(NO)c1ccc(CN2C(=O)c3ccccc3C23OCCO3)cc1` [Compound Example 8, N-hydroxy-4-((3-oxospiro[isoindoline-1,2′-[1,3]dioxolan]-2-yl)methyl)benzamide], for which, for the setting “Table 2”, the IC50 stood at 0.4 µM.

`O=C(NO)c1ccc(CN2C(=O)C3(CCOC3)c3ccccc32)cc1` (centres unmarked) [Compound Example 9] gave an IC50 (Table 2) of 1.92 µM.

`O=C(NO)c1ccc(CN2C(=O)c3ccccc3C23CCNCC3)cc1` [Compound Example 10, N-hydroxy-4-((3-oxospiro[isoindoline-1,4′-piperidin]-2-yl)methyl)benzamide] yielded an IC50 (Table 2) of 0.71 µM.

For the molecule `CN(C)C(=O)N1CCC2(CC1)c1ccccc1C(=O)N2Cc1ccc(C(=O)NO)cc1` [Compound Example 11, 2-(4-(hydroxycarbamoyl)benzyl)-N,N-dimethyl-3-oxospiro[isoindoline-1,4′-piperidine]-1′-carboxamide], the half-maximal inhibitory concentration (IC50) (Table 2) was determined as 0.52 µM.

Regarding `O=C(NO)c1ccc(CN2C(=O)c3ccccc3C23CCN(C2CC2)CC3)cc1` [Compound Example 12, 4-((1′-cyclopropyl-3-oxospiro[isoindoline-1,4′-piperidin]-2-yl)methyl)-N-hydroxybenzamide], it took 1.2 µM to reach half-maximal inhibition (Table 2) (IC50).

As to `Nc1ccc(-c2cccs2)cc1NC(=O)c1ccc(CN2C(=O)CCCC23CNC3)cc1` [Example 1, N-(2-amino-5-(thiophen-2-yl)phenyl)-4-((6-oxo-2,5-diazaspiro[3.5]nonan-5-yl)methyl)benzamide], the IC50 (Table 1) is > 20 µM.

For the molecule `Nc1ccc(-c2cccs2)cc1NC(=O)c1ccc(CN2C(=O)CCC23CCNCC3)cc1` [Example 2, N-(2-amino-5-(thiophen-2-yl)phenyl)-4-((2-oxo-1,8-diazaspiro[4.5]decan-1-yl)methyl)benzamide], the IC50 (Table 1) was > 20 µM.

For the molecule `Nc1cc(F)ccc1NC(=O)c1ccc(CN2C(=O)CCCC23CNC3)cc1` [Example 3, N-(2-amino-4-fluorophenyl)-4-((6-oxo-2,5-diazaspiro[3.5]nonan-5-yl)methyl)benzamide], under “Table 1”, the IC50 is > 10 µM.

In the case of `CN1CCC2(CC1)CN(c1ccc(C(=O)Nc3cc(-c4cccs4)ccc3N)cn1)C(=O)O2` [Example 4, N-(2-amino-5-(thiophen-2-yl)phenyl)-6-(8-methyl-2-oxo-1-oxa-3,8-diazaspiro[4.5]decan-3-yl)nicotinamide], the half-maximal inhibitory concentration (IC50) (Table 1) was > 20 µM.

Take `Nc1ccc(-c2ccc(F)cc2)cc1NC(=O)c1ccc(N2CC3(CCOCC3)OC2=O)nc1` [Example 5, N-(4-amino-4′-fluoro-[1,1′-biphenyl]-3-yl)-6-(2-oxo-1,8-dioxa-3-azaspiro[4.5]decan-3-yl)nicotinamide]: the IC50 (Table 1) is > 20 µM.

For the molecule `Nc1ccc(-c2cccs2)cc1NC(=O)c1ccc(N2CC3(CCNCC3)CCC2=O)nc1` [Example 6, N-(2-amino-5-(thiophen-2-yl)phenyl)-6-(3-oxo-2,9-diazaspiro[5.5]undecan-2-yl)nicotinamide], for the setting “Table 1”, the 50% inhibitory concentration (IC50) was > 20 µM.

The values are drawn from patent US11155550B2, “Histone deacetylase inhibitors and methods of use thereof” (Reaction Biology Corp., priority 2018, dated 2021).
